The values that follow come from US20230181564A1, “Potent Tetrahydroquinolone Eliminates Apicomplexan Parasites” (The University of Chicago, priority 2020, published 2023).

By Papp is commonly meant a coefficient for how fast a substance crosses the barrier. A lower Papp goes with slow passage. The efflux ratio is the permeability from basolateral to apical divided by that in the opposite direction, in the common usage. As a reminder, the solubility is the dissolved amount per volume that the medium holds. Read a low solubility as little dissolved substance. A word on the inhibition: it is the change of the read-out against control, counted positive when it falls. A high value points to strong suppression.

The nature of data set [1]: Metabolic stability in mouse liver microsomes. It counts as in vitro ADME. As to conditions: predicted half-life in mouse liver microsomes; no unit in table (101 minutes for JAG021).
Data set [2] has as its system P-glycoprotein (MDR1, ABCB1). As to the kind of experiment: in vitro. It counts as in vitro ADME, canine. To be noted: dog, MDCK-MDR1. The protocol: (§1) Structure Activity Relationship (SAR) and comparison of effect on T.gondii and HFF enzyme activity. […] The MDCK-MDR1 Permeability Assay was also performed. […] These were measured by Chem Partners.
Data set [3] can be described thus: Kinetic/aqueous solubility in PBS pH 7.4. It counts as physicochemical. As to conditions: for solubility: amorphous compounds; for PBS Sol pH7.4: solubility in Phosphate Buffered Saline pH 7.4, first value of cell. As to the method:
PBS Sol/Toxicity pH7.4 refers to solubility of the compound in Phosphate Buffered Saline (PBS) at pH7.4. […] Parasites were RH-YFP expressing tachyzoites (Tachy) and EGS (Brady) strains. Studies of effects of inhibitors on HFF or on T.gondii tachyzoites were performed with triplicate wells in at least two biological replicate experiments. Studies of effects on bradyzoites were performed at least twice in at least two biological replicate experiments. Compounds with much less inhibition of mammalian than T. gondii cytochrome bc in the saffarine enzyme assay (indicated by **) provide potential to further develop compounds, if unanticipated toxicity occurs from JAG21.
as §1

Data set [4] has as its system T. gondii mitochondrial membrane potential (cytochrome bc). As to the kind of experiment: Mitochondrial membrane potential by the safranine method (T. gondii, compared with HFF). In kind it is cell-based, Toxoplasma gondii. As to conditions: for Effect on T. gondii mitochondrial membrane potential: doses as high as 4 μM. The protocol: T.gondii and HFF Mitochondrial Membrane Potential Measurements—the mitochondrial membrane potential was measured by the safranine method according to Vercesi et al, 1998). Freshly egressed T. gondii tachyzoites were filtered and washed twice with intracellular buffer (125 mM sucrose, 65 mM KCl, 10 mM HEPES-KOH buffer, pH 7.2, 1 mM MgCl2 and 2.5 mM potassium phosphate). After washing, the parasites were resuspended in the same buffer at 10^9/ml. An aliquot of 50 μL of this suspension was added to a cuvette containing Safranin 0, 2.5 μM and Succinate 1 mM in final volume of 2 mL of the intracellular buffer. The fluorescence was measured with a Hitachi 7000 spectrofluorometer with setting Ex. 495/Em. 586. Once the baseline fluorescence is testable, 30 μM digitonin was added to permeabilize the parasites. 85 seconds after permeabilization, the THQ derivatives, dissolved in DMSO, were added. 5 μM of FCCP (Carbonyl cyanide-4-(trifluoromethoxy) phenylhydrazone) was used as an uncoupler reference for calculations and its effect was considered 100%. Similar conditions for measuring the mitochondrial potential of mammalian cells were used with the following changes: the mammalian cells were re-suspended at 10^8/ml. 50 μl of mammalian cells was also used for each run in a cuvette with […]. The substrate used for mammalian cells was 5 mM glutamate and 5 mM malate. A higher concentration of digitonin (50 μM) was used to permeabilize the mammalian cells. The compounds were added at about 400 seconds after permeabilization. Each experiment was repeated at least three times in duplicates. Statistical analysis, unpaired student t test, was performed using GraphPad Prism 8.0 (GraphPad Software, Inc., San Diego, Calif.).
Mitochondrial membrane potential measurements were performed with permeabilized T.gondii tachyzoites in suspension using safranin O, which loads into polarized membranes. T. gondii tachyzoites were permeabilized with digitonin to allow the mitochondrial substrate succinate to cross the membrane and energize the mitochondrion. The fluorescence of safranin O, which loads into energized mitochondria was used to measure the membrane potential. The energized state of the mitochondrion is observed by a decrease in fluorescence (FIGS. 3A,C,E). Trifluoromethoxy carbonylcyanide phenylhydrazone (FCCP) was used to depolarize the membrane, which causes the fluorescence to go up as shown in FIG. 3A. JAG21 depolarized the membrane potential even at concentrations as low as 2 nM (FIG. 3C,D). JAG21 and Atovaquone had similar effects on the mitochondrial membrane potential (FIG. 3D). […] The effect of these THQ compounds against the T. gondii mitochondrial membrane potential was greater than the effect on the human foreskin fibroblast membrane potential (FIG. 3E,F). […]

Data set [5] has as its system Human Foreskin Fibroblast (HFF). As to the kind of experiment: Cytotoxicity assay with WST-1 on HFF. It counts as cell-based. As to conditions: for Toxicity* (highest concentration tested that does not show toxicity to HFF): WST assay, second value of cell. The protocol: PBS Sol/Toxicity pH7.4 refers to solubility of the compound in Phosphate Buffered Saline (PBS) at pH7.4. […] Tachy/Brady IC50 was determined in studies in which cultures of parasites in HFF were treated with varying concentrations of the compound and there was 50% inhibition of the replication (number) of parasites. Parasites were RH-YFP expressing tachyzoites (Tachy) and EGS (Brady) strains. Studies of effects of inhibitors on HFF or on T.gondii tachyzoites were performed with triplicate wells in at least two biological replicate experiments. Studies of effects on bradyzoites were performed at least twice in at least two biological replicate experiments. Compounds with much less inhibition of mammalian than T. gondii cytochrome bc in the saffarine enzyme assay (indicated by **) provide potential to further develop compounds, if unanticipated toxicity occurs from JAG21.
Cytotoxicity Assays in parallel with RH Strain T.gondii in vitro studies. Toxicity assays used WST-1 cell proliferation reagent (Roche) as in Fomovska et al. (2012). HFF were grown on a flat, clear-bottomed, black 96-well plate. Confluent HFF were treated with inhibitory compounds at concentrations of 10 μM and 50 μM. Compounds were diluted in IMDM-C, and 20 μL were added to each designated well, with triplicates for each condition. A gradient with 2 fold-decreasing concentrations of DMSO from 10% to 0% in colorless, translucent IMDM-C was used as a control. The plate was incubated for 72 hours at 37° C. 10 μL WST-1 reagent (Roche) were added to each well. Cells were incubated for 30-60 minutes. Absorbance was read using a fluorimeter at 420 nm. A higher degree of color change (and absorbance) indicated mitochondrial activity and cell viability.
Because T. gondii grows inside cells, if a compound were toxic to host HFF then it would make the compound appear to be spuriously effective (Fomovska et al. 2012; Fomovska et al. 2012a), when in actuality only toxicity for the host cell would be measured. Cytotoxicity to HFF was therefore assessed for all compounds at 10 μM. Results of this experiment are in Table 1, toxicity column. A two-way ANOVA and subsequent pairwise comparison found none of the differences in absorbance, compared to the media-DMSO vehicle controls, to be statistically significant (p>0.05). Most of these compounds are not toxic at 10 μM (the limit of solubility) and that cytotoxicity to cells can be attributed to DMSO in the solution, not the compound.

Data set [6] has as its target T1, P. falciparum bc1 complex cytochrome c reductase (Pfbc1) (Plasmodium falciparum, UniProt Q02768).
T1 construct: Parasite extract was then prepared by disruption with a sonicating probe; endogenous in cells; host or cells: P. falciparum 3D7 blood-stage parasites freed by saponin, sonicated extract
T1 sequence (Q02768 1-376): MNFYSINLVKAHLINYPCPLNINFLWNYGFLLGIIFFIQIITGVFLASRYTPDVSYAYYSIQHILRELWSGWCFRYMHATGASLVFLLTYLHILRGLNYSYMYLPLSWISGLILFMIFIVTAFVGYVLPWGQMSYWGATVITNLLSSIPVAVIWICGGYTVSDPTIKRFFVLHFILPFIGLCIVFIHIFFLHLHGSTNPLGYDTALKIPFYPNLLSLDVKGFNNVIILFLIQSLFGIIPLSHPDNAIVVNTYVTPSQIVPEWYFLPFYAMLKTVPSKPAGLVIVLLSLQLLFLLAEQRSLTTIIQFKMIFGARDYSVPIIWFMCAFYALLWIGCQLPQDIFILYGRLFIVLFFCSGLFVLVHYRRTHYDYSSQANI
As to the kind of experiment: Pfbc1 native assay (cytochrome c reduction by parasite extract). In kind it is biochemical. To be noted: atovaquone 1 μM positive control, mean±S.D., N=4. The protocol: Enzyme assays. P. falciparum 3D7 strain were obtained from the Liverpool School of Tropical Medicine. Protease cocktail inhibitor was obtained from Roche. Bradford protein assay dye reagent was obtained from Bio-Rad. All other reagents were obtained from Sigma-Aldrich. Decylubiquinol was produced as per Fisher et al. (2009). In brief, 25 mg of decylubiquinone were dissolved in 400 μl of nitrogen-saturated hexane. An equal volume of aqueous 1 M sodium dithionite was added, and the mixture vortexed until colorless. […] Concentrations of decylubiquinol was determined spectrophotometrically on a Cary 300 Bio UV/visible spectrophotometer (Varian, UK) from absolute spectra, using ε288-320=8.1 mM-1·cm^−1. […]
The protocol for the preparation of parasite extract was adapted from Fisher et al. Free parasites were prepared from infected erythrocytes pooled from five T75 flasks, by adding 5 volumes of 0.15% (w/v) saponin in phosphate-buffered saline (137 mM NaCl, 2.7 mM KCl, 1.76 mM K2HPO4, 8.0 mM Na2HPO4, 5.5 mM D-glucose, pH 7.4) for 5 min, followed by three washes by centrifugation in RPMI containing HEPES (25 mM), and a final resuspension in potassium phosphate buffer (50 mM K2HPO4, 50 mM KH2PO4, 2 mM EDTA, pH7.4) containing a protease inhibitor cocktail (Complete Mini; Roche). […] The protein concentration of the parasite extract was determined by Bradford protein assay (Bio-Rad). […]

Values after ≈ are worked out from the molar mass of the structure shown. Some results are limits rather than exact numbers.

Turning to `Cc1[nH]c2c(c(=O)c1-c1ccc(Oc3ccccc3)cc1)CCCC2` [MJM170], the “T1/2 (M)” value in data set [1] is listed as 20.97. In addition, in data set [2], the Papp is over 10 ×10⁻⁶ cm/s and the efflux ratio was under 1.5. The compound also had a solubility in data set [3] (phosphate buffered saline, pH 7.4, aqueous buffer, kinetic from dmso stock) of 2 µM (≈ 0.663 µg/mL). The “PBS Sol pH7.4” value in data set [3] is listed as 1.97 μM.
Turning to `Cc1[nH]c2c(c(=O)c1-c1ccc(Oc3ccc(C(=O)O)cc3)cc1)CCCC2` [JAG046], in data set [4], the “Effect on T. gondii mitochondrial membrane potential” value is “almost no effect”. In addition, in data set [5], the “Toxicity* (highest concentration tested that does not show toxicity to HFF)” value was “ND/5 μM”.
For `Cc1[nH]c2c(c(=O)c1-c1ccc(Oc3cccc(C(=O)O)c3)cc1)CCCC2` [JAG047] the same measures were “almost no effect” and “ND/5 μM”.
Regarding `O=c1c2c([nH]c(CO)c1-c1ccc(Oc3ccc(OC(F)(F)F)cc3)cc1)CCCC2` [JAG099], in data set [6], at 1 µM the inhibition was 81.3 ± 6%. Besides, the “PBS Sol pH7.4” value in data set [3] worked out at 4.05 μM.
As for `Cc1[nH]c2c(c(=O)c1-c1ccc(Oc3ccc(Cl)cc3)cc1)CCCC2` [JAG050], the “Concentration depolarizing the T. gondii mitochondrial membrane potential” value in data set [4] (permeabilized tachyzoites, safranin O) is at least 200 nM. In data set [3], the solubility is 16 µM (≈ 5.85 µg/mL) and the “PBS Sol pH7.4” value stood at 16.41 μM. For the same compound, the “Toxicity to human cells in the in vitro model (HFF)” value in data set [5] was “not toxic”.
